Patent US20250222123A1, “COMPOUND COMPRISING FC-BINDING UNIT, AND CONJUGATE PREPARED USING SAME” (ABTIS CO., LTD., priority 2022, published 2025)
Where two headings read alike, the source gives them in different places.

Key:
[1] = system: MIA PaCa-2 (CLDN18.2-); test: Cell-based ELISA, CLDN18.2-negative cancer cells; assay type: binding; conditions: parental MIA PaCa-2, CLDN 18.2-negative cell line
Protocol: (§1) Four types of cell lines (MIA PaCa-2˜CLDN18.2, PATU8988S, parental MIA PaCa-2 (CLDN18.2-), and SNU601) were prepared. At this time, MIA PaCa-2˜CLDN18.2 and PATU8988S are CLDN18.2-positive pancreatic cancer cell lines. MIA PaCa-2 (CLDN18.2-) is a CLDN18.2-negative pancreatic cancer cell line. SNU601 is a CLDN18.2-positive gastric cancer cell line.
(§2) The prepared cell lines were cultured in DMEM containing 10% FBS and 1% penicillin/streptomycin (MIA PaCa-2˜CLDN18.2, MIA PaCa-2 (CLDN18.2-)), RPMI1640 containing 10% FBS and 1% penicillin/streptomycin (SNU601), and DMEM comprising 5% FBS, 5% horse serum, 1% penicillin/streptomycin, and […] L-glutamine (PATU8988S) in an incubator under the conditions of 37° C. and 5% CO2.
(§3) The prepared cell lines were plated on 96-well culture plates, treated with antibody-A, ADC-A, antibody-B, and ADC-B, respectively, and then cell-based ELISA was performed, and OD values were measured. At this time, the measured values are illustrated in FIGS. 38 to 41.
(§4) The measured results were used for regression analysis in GraphPad PRISM® 9.0 software to calculate EC50 and Bmax. The cell binding strengths of antibody-A, ADC-A, antibody-B, and ADC-B to each cell line were evaluated based on the calculated values.

[2] = target: T1, CLDN18.2 virus-like particle (VLP) (Homo sapiens, UniProt P56856); test: Indirect ELISA on CLDN18.2 virus-like particle (VLP); assay type: binding; conditions: CLDN18.2 (antigen protein), VLP-coated plate
T1 construct: purchased CUSABIO TECHNOLOGY LLC CSB-MP005498HU (A5)
Protocol: To confirm the binding strength to an antigen, a CLDN18.2 virus-like particle (VLP) in which the claudin 18.2 protein (CLDN18.2) was expressed was prepared. At this time, CLDN18.2˜VLP is CSB-MP005498HU (A5) from CUSABIO TECHNOLOGY LLC.
After a 96-well plate was coated with the CLDN18.2 VLP for ELISA and treated with antibody-A and ADC-A, respectively, indirect ELISA was performed to measure OD values. At this time, the measured values are illustrated in FIG. 37.
The measured results were used for regression analysis in GraphPad PRISM® 9.0 software to calculate EC50 and Bmax. The antigen binding strengths of antibody-A, ADC-A, antibody-B, and ADC-B were evaluated based on the calculated values.

[3] = system: MIA PaCa-2˜CLDN18.2; test: Cell-based ELISA, binding to antigen-expressing cancer cells
Protocol: as §1, §2, §3, §4

[4] = system: SNU601; test: as above; conditions: SNU601 (CLDN18.2+)
Protocol: as §1, §2, §3, §4

## Zolbetuximab [Antibody-B]
[1]
  binding to cell line (in words): did not bind
[2]
  Bmax: 2.134
[3]
  Bmax: 3.053
[3]; pancreatic cancer cell line
  Kd: 0.045 µg/mL
[3]; read-out: Kd
  Kd: 0.3 nM
[4]
  Bmax: 1.701
[4]; gastric cancer cell line
  Kd: 0.032 µg/mL
[4]; read-out: Kd
  Kd: 0.213 nM
